{"source": "paper PMC6211260", "about": "(Journal of Enzyme Inhibition and Medicinal Chemistry, 2018)", "key": {"[1]": {"test_system": "MDA-MB-468 breast cancer cell line", "assay": "NCI five-dose testing", "type": "cell-based", "settings": "MDA-MB-468", "procedure": "(§1) Screening against the cancer cell lines was carried out at the National Cancer Institute (NCI, Bethesda, Maryland, USA) applying the standard protocol of the NCI[22]."}, "[2]": {"test_system": "U251 CNS cancer cell line", "assay": "NCI five-dose testing", "type": "cell-based", "settings": "U251", "procedure": "as §1"}, "[3]": {"test_system": "PC-3 prostate cancer cell line", "assay": "NCI five-dose testing", "type": "cell-based", "settings": "PC-3", "procedure": "as §1"}, "[4]": {"test_system": "SK-MEL-5 melanoma cell line", "assay": "NCI five-dose testing", "type": "cell-based", "settings": "SK-MEL-5", "procedure": "as §1"}, "[5]": {"test_system": "HT-29 colon cancer cell line", "assay": "NCI five-dose testing", "type": "cell-based", "settings": "HT-29", "procedure": "as §1"}, "[6]": {"test_system": "K-562 leukaemia cell line", "assay": "NCI five-dose testing", "type": "cell-based", "settings": "K-562", "procedure": "as §1"}, "[7]": {"test_system": "OVCAR-4 ovarian cancer cell line", "assay": "NCI five-dose testing", "type": "cell-based", "settings": "OVCAR-4", "procedure": "as §1"}, "[8]": {"test_system": "A498 renal cancer cell line", "assay": "NCI five-dose testing", "type": "cell-based", "settings": "A498", "procedure": "as §1"}, "[9]": {"test_system": "HOP-92 non-small cell lung cancer cell line", "assay": "NCI five-dose testing", "type": "cell-based", "settings": "HOP-92", "procedure": "as §1"}, "[10]": {"test_system": "HCC-2998 colon cancer cell line", "assay": "NCI-60 single-dose screening", "type": "cell-based", "settings": "10 µM", "procedure": "as §1\n(§2) The final target compounds were submitted to the National Cancer Institute (NCI), Maryland, USA[23]. Thirty-one compounds were selected to be tested over 60 cell lines at single dose 10 µM."}, "[11]": {"test_system": "LOX IMVI melanoma cell line", "assay": "NCI-60 single-dose screening", "type": "cell-based", "settings": "10 µM", "procedure": "as §1, §2"}, "[12]": {"test_system": "SK-MEL-5 melanoma cell line", "assay": "NCI-60 single-dose screening", "type": "cell-based", "settings": "10 µM", "procedure": "as §1, §2"}, "[13]": {"test_system": "SF-295 CNS cancer cell line", "assay": "NCI-60 single-dose screening", "type": "cell-based", "settings": "10 µM", "procedure": "as §1, §2"}, "[14]": {"test_system": "Colo 205 colon cancer cell line", "assay": "NCI-60 single-dose screening", "type": "cell-based", "settings": "10 µM", "procedure": "as §1, §2"}, "[15]": {"test_system": "SK-MEL-28 melanoma cell line", "assay": "NCI-60 single-dose screening", "type": "cell-based", "settings": "10 µM", "procedure": "as §1, §2"}, "renal cancer cell lines": {"test_system": "renal cancer cell lines", "assay": "NCI five-dose testing, subpanel mean", "type": "cell-based", "settings": "subpanel VII: renal cancer", "procedure": "as §1"}, "[16]": {"test_system": "ovarian cancer cell lines", "assay": "NCI five-dose testing, subpanel mean", "type": "cell-based", "settings": "subpanel VI: ovarian cancer", "procedure": "as §1"}, "[17]": {"test_system": "prostate cancer cell lines", "assay": "NCI five-dose testing, subpanel mean", "type": "cell-based", "settings": "subpanel VIII: prostate cancer", "procedure": "as §1"}, "Leukaemia cell lines": {"test_system": "Leukaemia cell lines", "assay": "NCI five-dose testing, subpanel mean", "type": "cell-based", "settings": "subpanel I: Leukaemia", "procedure": "as §1"}, "[18]": {"test_system": "non-small cell lung cancer cell lines", "assay": "NCI five-dose testing, subpanel mean", "type": "cell-based", "settings": "subpanel II: non-small cell lung cancer", "procedure": "as §1"}, "CNS cancer cell lines": {"test_system": "CNS cancer cell lines", "assay": "NCI five-dose testing, subpanel mean", "type": "cell-based", "settings": "subpanel IV: CNS cancer", "procedure": "as §1"}, "melanoma cell lines": {"test_system": "melanoma cell lines", "assay": "NCI five-dose testing, subpanel mean", "type": "cell-based", "settings": "subpanel V: melanoma", "procedure": "as §1"}, "colon cancer cell lines": {"test_system": "colon cancer cell lines", "assay": "NCI five-dose testing, subpanel mean", "type": "cell-based", "settings": "subpanel III: colon cancer", "procedure": "as §1"}, "breast cancer cell lines": {"test_system": "breast cancer cell lines", "assay": "NCI five-dose testing, subpanel mean", "type": "cell-based", "settings": "subpanel IX: breast cancer", "procedure": "as §1"}, "hERG": {"molecular_target": "T1, hERG (Homo sapiens, UniProt Q12809)", "T1 construct": "purchased Invitrogen PV5365", "T1 sequence (Q12809 whole entry)": "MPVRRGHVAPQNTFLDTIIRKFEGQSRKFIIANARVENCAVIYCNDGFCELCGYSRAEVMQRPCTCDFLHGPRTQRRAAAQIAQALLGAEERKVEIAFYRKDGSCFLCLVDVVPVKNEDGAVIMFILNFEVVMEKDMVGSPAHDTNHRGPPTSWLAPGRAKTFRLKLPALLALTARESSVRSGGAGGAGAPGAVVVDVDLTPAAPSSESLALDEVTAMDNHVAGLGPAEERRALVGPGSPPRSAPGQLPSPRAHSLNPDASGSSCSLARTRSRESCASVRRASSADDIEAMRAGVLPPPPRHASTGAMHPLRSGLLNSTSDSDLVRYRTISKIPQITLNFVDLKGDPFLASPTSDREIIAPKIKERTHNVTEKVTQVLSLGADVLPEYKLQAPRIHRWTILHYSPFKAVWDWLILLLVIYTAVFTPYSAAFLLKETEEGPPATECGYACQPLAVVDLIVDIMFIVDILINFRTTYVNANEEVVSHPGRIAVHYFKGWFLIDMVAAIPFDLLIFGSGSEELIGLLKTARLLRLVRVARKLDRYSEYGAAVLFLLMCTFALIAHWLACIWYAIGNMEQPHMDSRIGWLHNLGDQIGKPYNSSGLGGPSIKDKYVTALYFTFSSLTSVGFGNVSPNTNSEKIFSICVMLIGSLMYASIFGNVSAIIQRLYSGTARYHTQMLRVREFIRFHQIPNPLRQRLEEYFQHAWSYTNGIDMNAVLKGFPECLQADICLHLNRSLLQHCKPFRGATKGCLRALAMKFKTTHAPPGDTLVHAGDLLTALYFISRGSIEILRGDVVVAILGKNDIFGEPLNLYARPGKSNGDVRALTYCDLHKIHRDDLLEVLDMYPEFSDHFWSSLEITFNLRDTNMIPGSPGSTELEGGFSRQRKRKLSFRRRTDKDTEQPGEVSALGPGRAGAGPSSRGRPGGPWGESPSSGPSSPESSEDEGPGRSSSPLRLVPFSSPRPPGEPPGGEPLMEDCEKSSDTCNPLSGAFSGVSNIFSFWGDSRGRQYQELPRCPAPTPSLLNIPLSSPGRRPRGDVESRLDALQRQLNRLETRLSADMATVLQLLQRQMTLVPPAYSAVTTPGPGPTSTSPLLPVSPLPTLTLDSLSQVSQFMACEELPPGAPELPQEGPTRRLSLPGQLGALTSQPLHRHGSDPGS", "assay": "hERG binding assay (hERG Fluorescence Polarization Assay)", "procedure": "hERG binding assay was performed using hERG Fluorescence Polarization Assay (Invitrogen: PV5365) assay kit and Synergy Neo (Biotek) and standard procedures were applied."}, "Plasma stability": {"assay": "Plasma stability", "type": "in vitro ADME", "settings": "37 °C, 10 µM", "procedure": "About 10 µM of compound 2l was mixed with human plasma and rat plasma and the mixture was shaked at 37 °C for 30 min and 120 min. After each time interval, acetonitrile was added and the mixture was centrifugated (14000 rpm, 4 °C). The supernatant was injected into the LC-MS to detect the remaining amount of compound 2l."}, "ROS/ROS1": {"molecular_target": "T2, ROS/ROS1 (Homo sapiens, UniProt P08922)", "T2 construct": "purchased Reaction Biology Corp", "T2 sequence (P08922 28-2347)": "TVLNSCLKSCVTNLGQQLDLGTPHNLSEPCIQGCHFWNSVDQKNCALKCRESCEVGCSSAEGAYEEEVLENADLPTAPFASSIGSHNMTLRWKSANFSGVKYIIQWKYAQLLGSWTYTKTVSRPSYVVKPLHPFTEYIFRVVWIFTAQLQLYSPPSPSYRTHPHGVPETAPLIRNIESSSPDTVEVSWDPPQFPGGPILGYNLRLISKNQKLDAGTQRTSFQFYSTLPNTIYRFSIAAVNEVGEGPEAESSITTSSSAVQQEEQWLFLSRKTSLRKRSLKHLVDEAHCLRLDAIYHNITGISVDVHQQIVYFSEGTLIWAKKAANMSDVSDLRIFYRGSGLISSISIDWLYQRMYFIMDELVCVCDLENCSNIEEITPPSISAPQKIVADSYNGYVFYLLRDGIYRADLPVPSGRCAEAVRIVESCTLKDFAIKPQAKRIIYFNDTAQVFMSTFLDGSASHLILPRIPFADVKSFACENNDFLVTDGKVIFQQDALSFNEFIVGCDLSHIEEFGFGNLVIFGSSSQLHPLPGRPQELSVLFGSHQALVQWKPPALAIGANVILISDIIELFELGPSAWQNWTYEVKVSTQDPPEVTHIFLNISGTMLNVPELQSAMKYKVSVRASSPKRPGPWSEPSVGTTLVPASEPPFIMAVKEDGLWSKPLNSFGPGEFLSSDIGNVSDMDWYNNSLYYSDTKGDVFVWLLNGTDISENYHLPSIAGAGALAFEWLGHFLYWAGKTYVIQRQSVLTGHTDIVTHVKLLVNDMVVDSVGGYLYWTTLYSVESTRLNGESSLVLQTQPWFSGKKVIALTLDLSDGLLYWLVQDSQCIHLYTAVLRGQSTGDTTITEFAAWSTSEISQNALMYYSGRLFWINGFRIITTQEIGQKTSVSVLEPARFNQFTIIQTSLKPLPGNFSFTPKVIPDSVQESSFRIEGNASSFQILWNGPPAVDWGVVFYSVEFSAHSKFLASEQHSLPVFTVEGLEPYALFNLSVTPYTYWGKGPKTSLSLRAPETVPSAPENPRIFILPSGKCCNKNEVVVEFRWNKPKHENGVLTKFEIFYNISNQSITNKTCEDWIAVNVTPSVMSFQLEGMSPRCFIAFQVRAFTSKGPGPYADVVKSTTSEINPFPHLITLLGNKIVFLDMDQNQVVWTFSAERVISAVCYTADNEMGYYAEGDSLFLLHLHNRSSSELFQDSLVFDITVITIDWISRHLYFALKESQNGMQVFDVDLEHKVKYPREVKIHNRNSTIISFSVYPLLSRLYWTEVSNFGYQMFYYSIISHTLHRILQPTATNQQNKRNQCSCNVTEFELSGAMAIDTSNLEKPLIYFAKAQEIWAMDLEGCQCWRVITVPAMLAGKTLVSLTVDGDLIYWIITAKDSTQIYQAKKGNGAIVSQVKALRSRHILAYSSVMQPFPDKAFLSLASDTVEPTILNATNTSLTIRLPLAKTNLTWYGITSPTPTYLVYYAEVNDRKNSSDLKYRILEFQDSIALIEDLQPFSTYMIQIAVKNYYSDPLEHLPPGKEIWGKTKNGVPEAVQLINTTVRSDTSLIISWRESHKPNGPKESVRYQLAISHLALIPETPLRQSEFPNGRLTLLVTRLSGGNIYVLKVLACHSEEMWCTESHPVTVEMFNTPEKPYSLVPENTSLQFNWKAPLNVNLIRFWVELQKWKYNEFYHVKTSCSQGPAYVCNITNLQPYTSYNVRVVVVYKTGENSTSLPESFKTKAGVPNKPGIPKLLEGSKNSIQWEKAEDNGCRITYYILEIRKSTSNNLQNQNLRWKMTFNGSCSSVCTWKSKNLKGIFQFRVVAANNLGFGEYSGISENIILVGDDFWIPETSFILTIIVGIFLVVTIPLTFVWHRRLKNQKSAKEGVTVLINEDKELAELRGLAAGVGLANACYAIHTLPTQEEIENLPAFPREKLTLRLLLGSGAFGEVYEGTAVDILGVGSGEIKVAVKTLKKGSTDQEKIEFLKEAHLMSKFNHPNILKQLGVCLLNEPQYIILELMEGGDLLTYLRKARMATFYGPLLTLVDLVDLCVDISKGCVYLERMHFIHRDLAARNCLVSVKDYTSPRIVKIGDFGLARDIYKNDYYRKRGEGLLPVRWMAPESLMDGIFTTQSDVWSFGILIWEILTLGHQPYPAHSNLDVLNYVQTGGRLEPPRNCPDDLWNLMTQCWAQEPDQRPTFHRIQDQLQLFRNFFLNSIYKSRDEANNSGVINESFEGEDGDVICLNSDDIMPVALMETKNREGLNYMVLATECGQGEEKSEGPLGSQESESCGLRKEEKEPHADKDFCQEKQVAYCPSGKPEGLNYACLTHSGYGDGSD", "assay": "In vitro kinase screening (Kinase HotSpot)", "type": "biochemical", "settings": "single dose of 10 µM", "from_the_text": "(§3) To investigate the biological target of compound, Reaction Biology Corp. Kinase HotSpotSM service was used adopting standard assay protocol."}, "ERK2/MAPK1": {"molecular_target": "T3, ERK2/MAPK1 (Homo sapiens, UniProt P28482)", "T3 construct": "purchased Reaction Biology Corp", "T3 sequence (P28482 whole entry)": "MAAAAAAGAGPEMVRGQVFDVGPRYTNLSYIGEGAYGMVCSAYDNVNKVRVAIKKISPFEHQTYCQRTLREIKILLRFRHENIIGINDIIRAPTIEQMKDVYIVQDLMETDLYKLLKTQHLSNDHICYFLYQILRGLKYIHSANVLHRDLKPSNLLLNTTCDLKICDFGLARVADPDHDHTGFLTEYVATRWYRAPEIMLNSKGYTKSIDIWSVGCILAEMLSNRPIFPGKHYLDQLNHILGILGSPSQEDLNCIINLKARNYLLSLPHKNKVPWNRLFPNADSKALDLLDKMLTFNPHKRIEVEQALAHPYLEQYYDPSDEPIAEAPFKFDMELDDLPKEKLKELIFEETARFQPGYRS", "assay": "In vitro kinase screening (Kinase HotSpot)", "type": "biochemical", "settings": "single dose of 10 µM", "from_the_text": "as §3"}, "MKK6": {"molecular_target": "T4, MKK6 (Homo sapiens, UniProt P52564)", "T4 construct": "purchased Reaction Biology Corp", "T4 sequence (P52564 whole entry)": "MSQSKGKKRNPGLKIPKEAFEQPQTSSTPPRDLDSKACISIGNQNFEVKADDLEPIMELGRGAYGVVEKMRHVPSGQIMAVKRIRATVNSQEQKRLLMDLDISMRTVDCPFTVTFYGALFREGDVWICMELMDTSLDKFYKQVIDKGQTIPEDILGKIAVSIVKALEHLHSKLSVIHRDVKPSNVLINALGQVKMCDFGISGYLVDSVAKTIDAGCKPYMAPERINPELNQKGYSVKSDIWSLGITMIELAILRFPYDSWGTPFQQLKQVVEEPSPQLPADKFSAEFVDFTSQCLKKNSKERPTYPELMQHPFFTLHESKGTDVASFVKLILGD", "assay": "In vitro kinase screening (Kinase HotSpot)", "type": "biochemical", "settings": "single dose of 10 µM", "from_the_text": "as §3"}, "mTOR/FRAP1": {"molecular_target": "T5, mTOR/FRAP1 (Homo sapiens, UniProt P42345)", "T5 construct": "purchased Reaction Biology Corp", "assay": "In vitro kinase screening (Kinase HotSpot)", "type": "biochemical", "settings": "single dose of 10 µM", "from_the_text": "as §3"}, "BRAF": {"molecular_target": "T6, BRAF (Homo sapiens, UniProt P15056)", "T6 construct": "purchased Reaction Biology Corp", "T6 sequence (P15056 whole entry)": "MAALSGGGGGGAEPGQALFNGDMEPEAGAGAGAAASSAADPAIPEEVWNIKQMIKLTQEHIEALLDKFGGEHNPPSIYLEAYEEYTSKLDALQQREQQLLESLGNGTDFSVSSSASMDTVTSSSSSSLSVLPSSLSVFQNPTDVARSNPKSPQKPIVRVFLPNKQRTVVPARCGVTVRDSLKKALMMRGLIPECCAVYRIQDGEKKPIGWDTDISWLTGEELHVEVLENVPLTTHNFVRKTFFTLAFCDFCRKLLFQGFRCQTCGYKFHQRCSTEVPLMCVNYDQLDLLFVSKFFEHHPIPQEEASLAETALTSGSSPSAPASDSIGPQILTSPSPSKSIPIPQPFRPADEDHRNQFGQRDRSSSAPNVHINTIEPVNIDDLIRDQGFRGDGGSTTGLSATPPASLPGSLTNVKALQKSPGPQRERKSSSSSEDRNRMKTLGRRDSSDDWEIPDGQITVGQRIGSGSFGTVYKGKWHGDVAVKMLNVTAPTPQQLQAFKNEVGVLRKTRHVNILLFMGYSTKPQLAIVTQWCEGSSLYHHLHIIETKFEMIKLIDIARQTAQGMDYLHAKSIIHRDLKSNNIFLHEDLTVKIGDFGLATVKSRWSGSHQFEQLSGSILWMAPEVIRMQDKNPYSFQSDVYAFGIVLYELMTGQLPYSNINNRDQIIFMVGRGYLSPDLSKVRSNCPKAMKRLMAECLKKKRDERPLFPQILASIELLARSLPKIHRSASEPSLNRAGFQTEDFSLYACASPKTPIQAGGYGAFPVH", "assay": "In vitro kinase screening (Kinase HotSpot)", "type": "biochemical", "from_the_text": "as §3"}, "NCI-60 cell line panel": {"test_system": "NCI-60 cell line panel", "assay": "NCI-60 single-dose (10 µM) antiproliferative screening, mean over panel", "type": "cell-based", "settings": "single-dose 10 µM", "procedure": "as §1, §2"}, "[19]": {"settings": "read-out: TGI (total growth inhibition concentration)"}}}
{"molecule": "O=S(=O)(NCCCNc1cc(-c2cn(-c3ccccc3)nc2-c2cccc(O)c2)ccn1)c1ccc(Cl)cc1", "note": "[Compound 2l, 4-Chloro-N-(3-((4-(3-(3-hydroxyphenyl)-1-phenyl-1H-pyrazol-4-yl)pyridin-2-yl)amino)propyl) benzenesulfonamide]", "values": [{"measurement": "IC50", "setting": "[1]", "result": 1160, "unit": "nM"}, {"measurement": "LD50 (lethal dose 50)", "setting": "[1]", "result": ">100", "unit": "µM"}, {"measurement": "IC (TGI)", "setting": "[1]; [19]", "result": 4.6, "unit": "µM"}, {"measurement": "LD50 (lethal dose 50)", "setting": "[2]", "result": 8.8, "unit": "µM"}, {"measurement": "IC50", "setting": "[2]; read-out: IC50", "result": 1350, "unit": "nM"}, {"measurement": "IC (TGI)", "setting": "[2]; [19]", "result": 3.4, "unit": "µM"}, {"measurement": "LD50 (lethal dose 50)", "setting": "[3]", "result": ">100", "unit": "µM"}, {"measurement": "IC50", "setting": "[3]; read-out: IC50", "result": 1740, "unit": "nM"}, {"measurement": "IC (TGI)", "setting": "[3]; [19]", "result": 6.1, "unit": "µM"}, {"measurement": "IC50", "setting": "[4]", "result": 1230, "unit": "nM"}, {"measurement": "LD50 (lethal dose 50)", "setting": "[4]", "result": 5.3, "unit": "µM"}, {"measurement": "IC (TGI)", "setting": "[4]; [19]", "result": 2.5, "unit": "µM"}, {"measurement": "LD50 (lethal dose 50)", "setting": "[5]", "result": 4.7, "unit": "µM"}, {"measurement": "IC50", "setting": "[5]; read-out: IC50", "result": 470, "unit": "nM"}, {"measurement": "IC (TGI)", "setting": "[5]; [19]", "result": 1.7, "unit": "µM"}, {"measurement": "IC50", "setting": "[6]", "result": 430, "unit": "nM"}, {"measurement": "LD50 (lethal dose 50)", "setting": "[6]", "result": ">100", "unit": "µM"}, {"measurement": "IC (TGI)", "setting": "[6]; [19]", "result": 2.5, "unit": "µM"}, {"measurement": "IC50", "setting": "[7]", "result": 1670, "unit": "nM"}, {"measurement": "LD50 (lethal dose 50)", "setting": "[7]", "result": ">100", "unit": "µM"}, {"measurement": "IC (TGI)", "setting": "[7]; [19]", "result": 5.9, "unit": "µM"}, {"measurement": "IC50", "setting": "[8]", "result": 330, "unit": "nM"}, {"measurement": "LD50 (lethal dose 50)", "setting": "[8]", "result": 6.9, "unit": "µM"}, {"measurement": "IC (TGI)", "setting": "[8]; [19]", "result": 2.2, "unit": "µM"}, {"measurement": "IC50", "setting": "[9]", "result": 1520, "unit": "nM"}, {"measurement": "LD50 (lethal dose 50)", "setting": "[9]", "result": 93.2, "unit": "µM"}, {"measurement": "IC (TGI)", "setting": "[9]; [19]", "result": 4.7, "unit": "µM"}, {"measurement": "per cent inhibition", "setting": "[10]", "result": 162.39, "unit": "%"}, {"measurement": "per cent inhibition", "setting": "[11]", "result": 129.50, "unit": "%"}, {"measurement": "per cent inhibition", "setting": "[12]", "result": 156.35, "unit": "%"}, {"measurement": "per cent inhibition", "setting": "[13]", "result": 155.19, "unit": "%"}, {"measurement": "per cent inhibition", "setting": "[14]", "result": 170.28, "unit": "%"}, {"measurement": "per cent inhibition", "setting": "[15]", "result": 136.19, "unit": "%"}, {"measurement": "IC50", "setting": "renal cancer cell lines", "result": 2060, "unit": "nM"}, {"measurement": "IC50", "setting": "[16]", "result": 2090, "unit": "nM"}, {"measurement": "IC50", "setting": "[17]", "result": 2280, "unit": "nM"}, {"measurement": "IC50", "setting": "Leukaemia cell lines", "result": 1440, "unit": "nM"}, {"measurement": "IC50", "setting": "[18]", "result": 2320, "unit": "nM"}, {"measurement": "IC50", "setting": "CNS cancer cell lines", "result": 1650, "unit": "nM"}, {"measurement": "IC50", "setting": "melanoma cell lines", "result": 1680, "unit": "nM"}, {"measurement": "IC50", "setting": "colon cancer cell lines", "result": 1510, "unit": "nM"}, {"measurement": "IC50", "setting": "breast cancer cell lines", "result": 1580, "unit": "nM"}, {"measurement": "IC50", "setting": "hERG", "result": 8.28, "unit": "µM"}, {"measurement": "Plasma stability, remaining unchanged", "setting": "Plasma stability; Human plasma, 30 min", "result": 100, "unit": "%"}, {"measurement": "Plasma stability, remaining unchanged", "setting": "Plasma stability; Human plasma, 30 min, listed as 2 l", "result": 100, "unit": "%"}, {"measurement": "Plasma stability, remaining unchanged", "setting": "Plasma stability; Human plasma, 120 min", "result": 95.3, "unit": "%"}, {"measurement": "Plasma stability, remaining unchanged", "setting": "Plasma stability; Human plasma, 120 min, listed as 2 l", "result": 95.3, "unit": "%"}, {"measurement": "Plasma stability, remaining unchanged", "setting": "Plasma stability; Rat plasma, 30 min", "result": 100, "unit": "%"}, {"measurement": "Plasma stability, remaining unchanged", "setting": "Plasma stability; Rat plasma, 120 min", "result": 100, "unit": "%"}, {"measurement": "Inhibition %", "setting": "ROS/ROS1", "result": "24.03 ± 0.51", "unit": "%"}, {"measurement": "Inhibition %", "setting": "ERK2/MAPK1", "result": "22.21 ± 0.41", "unit": "%"}, {"measurement": "Inhibition %", "setting": "MKK6", "result": "16.65 ± 0.11", "unit": "%"}, {"measurement": "Inhibition %", "setting": "mTOR/FRAP1", "result": "0.72 ± 0.32", "unit": "%"}, {"measurement": "IC50", "setting": "BRAF", "result": "4.87 ± 0.07", "unit": "µM"}, {"measurement": "Inhibition %", "setting": "BRAF; single dose of 10 µM", "result": "72.56 ± 0.27", "unit": "%"}, {"measurement": "Mean % inhibition", "setting": "NCI-60 cell line panel; 60-cancer cell line screening", "result": 97.80, "unit": "%"}, {"measurement": "number of cell lines with more than 100% inhibition", "setting": "NCI-60 cell line panel; NCI-60 panel", "result": 24}]}
